Assay results: a melting point compilation (Tetko et al.; mined from patent text by program, amines drawn as free bases though some values may be those of a salt)

Compared with `CC(=O)Nc1cc(Oc2ccc3c(C(=O)Nc4ccc(CN5CCN(C(C)C)CC5)c(C(F)(F)F)c4)cccc3c2)ncn1`, `COc1cc2c(cc1OC)CN(CCCc1cccc(NC(=O)c3cccc4c(=O)c5cccc(F)c5[nH]c34)c1)CC2` is lower in melting point: 210 to 213 °C for the first, 128 °C for the second.

First: CN(CCOCCO)S(=O)(=O)c1ccc(NC=C2C(=O)Nc3ccc4ncsc4c32)cc1
Second: CCOC(=O)c1ccccc1-c1ccc2nc[nH]c(=O)c2c1
The melting point of the first is higher: 165 °C for the first, 151 to 158 °C for the second.

Compared with `CCOC(=O)c1ccc2c(c1)C(=O)CC(c1ccccc1)=N2`, `Cc1oc(-c2ccccc2)nc1COc1ccc(O)cc1` is lower in melting point: greater than 300 °C for the first, 168 to 169 °C for the second.

Compared with `Cc1cc(-c2cc(C(F)(F)F)n3ncc(-c4ccccn4)c3n2)ccc1Cl`, `CNc1nc(Nc2ccc(Cl)c(Cl)c2)ncc1NS(=O)(=O)Cc1ccccc1` is higher in melting point: 183 °C for the first, 233 to 235 °C for the second.

First: O=c1ccn(-c2cc(Cl)ccc2Cl)[nH]1
Second: O=Cc1cc(Cl)ccc1OCCc1ccccc1
The melting point of the first is higher: 201 to 202 °C for the first, 73 to 74 °C for the second.

Compared with `COc1cc(-c2nc3ccc(OCCCl)cc3n2Cc2ccccc2)cc(OC)c1OC`, `COc1ccc2c(c1)c(C(C)C(=O)O)cc(=O)n2Cc1ccccc1Cl` (stereo unspecified) is higher in melting point: 129 °C for the first, 187 to 188 °C for the second.

Compared with `CC1(C)CN=C2N(C1)c1ccc(C#N)cc1C21OCCCO1`, `COc1cc2c(cc1C#N)C1(CO2)C(=O)N(Cc2ccccn2)c2ccccc21` (stereo unspecified) is higher in melting point: 178 to 184 °C for the first, 187 to 189 °C for the second.

Going from `C=CCO[C@H]1[C@@H](OCc2ccccc2)[C@@H](OCc2ccccc2)[C@H](OCc2ccccc2)[C@@H](OCc2ccccc2)[C@@]1(CCC)OC(=O)CCC` (racemic) to `CCCCC1(CC)CS(=O)(=O)c2ccccc2N(c2ccccc2)C1=O` (stereo unspecified), the melting point falls from 115 °C to 57.6 °C.

First: CC(C)(C)c1ccc(S(=O)(=O)N2c3ccccc3C[C@H]2C(=O)NCc2ccc(Cl)cc2)cc1
Second: COc1ccc(/C=C/C(=O)C2C(=O)CC(c3ccc(OC)cc3)C([N+](=O)[O-])C2c2ccccc2)cc1 (stereo unspecified)
The melting point of the first is lower: 69 °C for the first, 164 to 165 °C for the second.

First: CCCCN(CCCC)Cc1nc(-c2ncn3c2CN(C)C(=O)c2ccccc2-3)no1
Second: O=C1c2ccccc2C(=O)N1CCOc1cccc2c1CCC2
The melting point of the first is lower: 105 to 110 °C for the first, 128 to 132 °C for the second.

First: Cc1nc(C)c(Cl)c(NCc2nccc(SCCCCSCCn3c([N+](=O)[O-])cnc3C)c2C)n1
Second: CC1=C(C(=O)OCC[Si](C)(C)C)C(c2cccc([N+](=O)[O-])c2)C(C(=O)OCC[Si](C)(C)C)=C(C)N1
The melting point of the first is higher: 142 to 144 °C for the first, 120 °C for the second.

First: NC(=O)N[C@@H]1CCC[C@@H](O)c2sccc21 (relative stereo)
Second: O=C1CC[C@@H]2c3ccc(Cl)cc3CCC2N1 (stereo partly specified)
The melting point of the first is lower: 169 to 172 °C for the first, 242 °C for the second.

First: CCCOc1ccc(-c2scc(-c3ccccc3)c2CC(=O)NC(=N)N)cc1
Second: O=Cc1ccc(-c2cnn(-c3ccc(OC(F)(F)F)cc3)c2)cc1
The melting point of the first is lower: 94 to 95 °C for the first, 107 to 109 °C for the second.

Compared with `O=C(N[C@H]1CCN(CCc2ccc(F)cc2)C1)C(C1CCCCC1)C1CCCCC1`, `O=C1Nc2ccc(Cl)cc2C1c1ncnc2nn(C3CCCCC3)cc12` (stereo unspecified) is higher in melting point: 122 to 124 °C for the first, 294 to 298 °C for the second.

First: N#CC1=C(c2cccs2)Nc2n[nH]cc2C1c1ccccc1Cl (stereo unspecified)
Second: CCOC(=O)c1cc2ccc(Cl)c(N(C)S(=O)(=O)c3cccs3)c2[nH]1
The melting point of the first is higher: 174 °C for the first, 156 to 157 °C for the second.

First: CCNC(=O)c1c(Cl)cc(C(C)(C)C)cc1[Si](C)(C)C
Second: COCCc1cc(N)n2nc(SC)c(S(=O)(=O)c3ccccc3)c2n1
The melting point of the first is lower: 124 to 126 °C for the first, 186 to 187 °C for the second.

First: O=[N+]([O-])c1ccccc1COc1ccc2ncc3c(c2c1)C(O)CCC3 (stereo unspecified)
Second: O=C1NC(=O)C(c2c[nH]c3ccc(Br)cc23)C1c1cc2c3c(ccn3CCC2)c1 (stereo unspecified)
The melting point of the first is lower: 181 to 183 °C for the first, 195 to 200 °C for the second.

First: CC(=O)ON1C(C)(C)CC(OC(=O)c2ccc(C(=O)OC3CC(C)(C)N(OC(C)=O)C(C)(C)C3)cc2)CC1(C)C
Second: CNc1ccc(-c2cnc3[nH]cc(C(=O)C4(C)CCCCC4)c3n2)cc1
The melting point of the first is lower: 206 to 212 °C for the first, 273 to 275 °C for the second.
